Experimental data taken from paper PMC12040169 (PLOS Biology, 2025).

Assay: in vitro
Conditions: human, hela cells, % viability

Row | Structure (SMILES) | viability at 28.5 h, 10 µM
1 | Cc1cc(CN(C)Cc2cn(C)c3cc(F)ccc23)n[nH]1 [CBK281710] | 89.6%
2 | COc1ccc(-n2ncc3c2CCCN(C(=O)C2CC2)C3)cc1 [CBK284498] | 84.3%
3 | COc1ccc2c(c1)c(C(NCc1cccc(C(F)(F)F)c1)C(N)=O)nn2Cc1ccccc1 (centres unmarked) [CBK010715] | 100%
4 | Cc1ccc(S(=O)(=O)CC(=O)N2CCCC3(CCN(C(=O)c4cc(F)c(F)cc4F)C3)C2)cc1 (centres unmarked) [CBK131558] | 99%
5 | Cc1cccc(CN2CC[C@H]3[C@@H](C2)[C@H](c2ccsc2)CN3C(=O)c2ccccc2)c1 [CBK285619] | 106%
6 | CNC(=O)C1(Cc2ccc(-c3ccccc3)cc2)CCN(C(=O)Cc2ccccc2F)CC1 [CBK285768] | 94.8%
7 | CC(=O)Nc1cccc(-c2cncc(NCCc3c[nH]c4ccccc34)n2)c1 [CBK037820] | 97.9%
8 | O=C(Cn1cccc2cc(C3CCCNC3)nc1-2)N1CCCC1 (centres unmarked) [CBK285086] | 88.7%
9 | COc1ccc(-c2cc3ncnc(Sc4nnnn4CC4CCCO4)c3s2)cc1 (centres unmarked) [CBK297157] | 95.9%
10 | Cc1ccc(Cn2ccsc2=NC(=O)c2cc(S(=O)(=O)N3CCOCC3)ccc2C)cc1 [CBK296935] | 101%
11 | O=C(NC1CC1)c1ccc(-c2cnc3[nH]c(=O)n(-c4ccc5[nH]ccc5c4)c3n2)cc1 [CBK064916] | 103%
12 | Cc1nc(CCNC(=O)C2CC(c3cccc(F)c3)=NO2)cs1 (centres unmarked) [CBK305798] | 106%
13 | Cc1c(C(=O)O)sc(S(=O)(=O)N2CCN(C(=O)CCC3CCCC3)CC2)c1C(=O)O [CBK297121] | 117%
14 | COc1ccc(C2=NNC(=O)C(c3ccc(OC)cc3)C2)cc1 (centres unmarked) [CBK287908] | 99.7%
15 | CC(CN(C)C(=O)c1c[nH]nn1)Oc1ccc(Cl)c(Cl)c1 (centres unmarked) [CBK306160] | 87.5%
16 | COc1ncc(-c2nccnc2OCCn2cnc3c2c(=O)n(C)c(=O)n3C)c(OC)n1 [CBK106746] | 87.3%
17 | C=CCN(C)C(=O)[C@H]1C[C@@H](O)[C@H](O)[C@@H]2N=C(Nc3ccc(OC)cc3)S[C@@H]21 [CBK288947] | 97.1%
18 | Cc1nc(-c2ccccc2F)sc1C(=O)Nc1ccccn1 [CBK287979] | 98.8%
19 | N#CC(N)c1c(Cl)cccc1Cl (centres unmarked) [CBK008288C] | 103%
20 | C=CCNC(=O)CCn1c(C(C)C)cc2cccnc21 [CBK283289] | 105%
21 | Cc1cc(=O)oc2cc(SCc3ccc(Cl)s3)ccc12 [CBK002898] | 89.5%

Row | Structure (SMILES) | viability at 28.5 h, 10 µM
22 | O=C(c1ccco1)N1CCN(C(=O)c2c(F)cccc2F)CC1 [CBK144479] | 86.3%
23 | Cc1c(-c2ccc(N(C)C)nc2)c(C(F)(F)F)nn1C [CBK307320] | 83.5%
24 | Cc1c(C(=O)NC(C)c2ccncc2)oc2c(F)cccc12 (centres unmarked) [CBK282105] | 103%
25 | COc1ccc(OCCN2CCC(C(=O)NC(c3ccccn3)c3ccccc3OC)CC2)cc1 (centres unmarked) [CBK147938] | 86.3%
26 | CCC1CCCCN1C(=O)c1cc(C)ccc1F (centres unmarked) [CBK082754] | 108%
27 | O=C(NCc1ccccc1)[C@H]1CN2CCC1C[C@@H]2Cn1cc(-c2ccc(F)cc2)nn1 (some centres unmarked) [CBK288736] | 87%
28 | N=c1n(Cc2ccccc2)c2ccccc2n1CC(O)COc1ccc(Cl)cc1 (centres unmarked) [CBK262469C] | 94.4%
29 | COC(=O)c1sccc1Oc1ccc([N+](=O)[O-])cn1 [CBK066826] | 115%
30 | CC(C)(Oc1ccc(Cl)cc1)C(=O)Nc1nnc[nH]1 [CBK288220] | 102%
31 | CCn1ncc(S(=O)(=O)N2CCCC(c3cccc(Cc4cccc(C)c4)n3)C2)c1C (centres unmarked) [CBK286244] | 97.7%
32 | CC(Oc1cccc(Cl)c1)C(=O)Nc1ncccn1 (centres unmarked) [CBK265450] | 90.2%
33 | Cc1cc(C)n(CCCN(C)Cc2c(C)nc3ccccn23)n1 [CBK281901] | 90%
34 | O=C(O)C1CCCN1S(=O)(=O)c1ccc(Cl)c(Cl)c1 (centres unmarked) [CBK217856] | 99.1%
35 | NS(=O)(=O)c1ccc(CCNCC2CCCCC2)cc1 [CBK288467] | 92.5%
36 | COC(=O)CC1CCC(NC(=O)C(F)(F)F)CC1 (centres unmarked) [CBK009129] | 97.4%
37 | Cc1cc(C)n(C(C)CC(=O)NC(C)c2nc3ccccc3s2)n1 (centres unmarked) [CBK281469] | 93.2%
38 | O=C(c1cccnc1)C1CCN(C(=O)c2ccccc2F)CC1 [CBK283853] | 95.1%
39 | OC1CCC(Nc2cncc(-c3ccc4ccccc4c3)n2)CC1 (centres unmarked) [CBK065463] | 91.7%
40 | Cc1noc(C)c1C(=O)N1CCC[C@H](C(=O)c2ccc(F)cc2)C1 [CBK284334] | 81.7%
41 | O=C(O)Cc1ccc(NS(=O)(=O)c2ccc(F)cc2)cc1 [CBK269981] | 94.2%
42 | COc1ccnc(N2CCN(C(=O)CCc3ccsc3)CC2)n1 [CBK306350] | 90.5%

Row | Structure (SMILES) | viability at 28.5 h, 10 µM
43 | O=C1CC(c2ccc(Br)cc2)Nc2ccc3ccccc3c21 (centres unmarked) [CBK094798] | 93.4%
44 | CC(C)N1CCC[C@H]1c1nc(-c2ccc(N3CCN(C)CC3)nc2)no1 [CBK288881] | 83.6%
45 | CC(=O)N1CC2(CCN(Cc3nccn3C(C)C)CC2)CC1C(=O)O (centres unmarked) [CBK306587] | 93.7%
46 | CCn1nc(CC(C)C)cc1C(=O)NCCc1cn2cccnc2n1 [CBK306553] | 98.9%
47 | COc1ccc(Cc2nc3ccccc3n2CCc2ccccc2)cc1 [CBK266385] | 95.2%
48 | c1ccc(-c2nnc(CSc3nnc(-c4ccncc4)[nH]3)o2)cc1 [CBK269962] | 94.9%
49 | Cc1sc(NC(=O)c2ccc(F)cc2Cl)c(C(=O)NCc2cccnc2)c1C [CBK270319] | 82.9%
50 | CCOc1ccc(C2CCCN2S(=O)(=O)c2c[nH]c(=O)[nH]c2=O)cc1 (centres unmarked) [CBK285806] | 92.6%
51 | O=C1CNC(=O)C2(C/C=C/C[C@H]3COCC[C@@H]3N1)CCN(C(=O)CCc1cccnc1)CC2 [CBK292051] | 107%
52 | COc1ccc([C@@]23CC[C@@H](NC(=O)c4ccc(C(F)(F)F)cc4F)C[C@@H]2N(C)CC3)cc1OC [CBK073976T] | 108%
53 | COCC(=O)NC1CCN(CC2(c3ccc(C)cc3)CC2)CC1 [CBK285350] | 104%
54 | COc1ccc(-c2cnc3[nH]c(=O)n(Cc4ccccc4)c3n2)cc1 [CBK064210] | 103%
55 | COc1ccc([N+](=O)[O-])cc1N(CC(=O)Nc1cccc2ccccc12)S(C)(=O)=O [CBK268197] | 84.2%
56 | CCC1CCC2(CC1)NC(=O)N(Cc1cc(-c3ccccc3)on1)C2=O (centres unmarked) [CBK294977] | 90.1%
57 | Cc1ccc(C(CC(=O)N2CCN(Cc3ccccc3)CC2)c2ccccc2)c(O)c1C (centres unmarked) [CBK262214] | 100%
58 | c1cncc(CN2CCCN(c3nccc(OCC4COc5ccccc5O4)n3)CC2)c1 (centres unmarked) [CBK083969] | 112%
59 | CN(C)CCOc1ccc2c(c1)OC1(CCN(C(=O)c3ccc4sc(N)nc4c3)CC1)CC2=O [CBK169380] | 91.4%
60 | O=[N+]([O-])c1ccc(CN2CCC(Oc3cncc(OCCN4CCOCC4)n3)C2)cc1 (centres unmarked) [CBK084485] | 95.2%
61 | COc1ccc(OC)c([C@@H]2CN(Cc3ccccc3)C[C@H]2NC(=O)c2ccco2)c1 [CBK286479] | 96.3%

Same assay, conditions: human, hela cells, % viability, bulk resorufin, single well

Row | Structure (SMILES) | viability at 28.5 h, 10 µM
62 | CCOC(=O)N1CCC2(CC1)Oc1ccc(Br)cc1O2 [CBK089365] | 80.9%
